We go through five compounds from patent EP0923576B1, “4-AMINOETHOXY-INDOLONE DERIVATIVES AS DOPAMINE D2 AGONISTS” (Wyeth, priority 1996, dated 1998).

One test addresses T1, dopamine D-2 receptor (Rattus norvegicus, UniProt P61169).
T1 construct: homogenized limbic brain tissue is incubated with ^3H-spiroperidol; from tissue
Description: 3H-spiroperidol binding, affinity for the dopamine D-2 receptor in homogenized limbic brain tissue. The note with it: for Ratio: ratio IC50 D2 Spiper / IC50 D2 Quin. (LowAg/HighAg), predicts intrinsic activity; for IC50: read-out: IC50 (nM) D2 Spiper.

The target of a further test is dopamine autoreceptor (Rattus norvegicus, UniProt P61169). Description: 3H-quinpirole binding, affinity for the dopamine autoreceptor in homogenized striatal brain tissue.

By IC50 is commonly meant the point on the concentration scale where inhibition reaches its midpoint.

Chain of dopamine autoreceptor (P61169 whole entry): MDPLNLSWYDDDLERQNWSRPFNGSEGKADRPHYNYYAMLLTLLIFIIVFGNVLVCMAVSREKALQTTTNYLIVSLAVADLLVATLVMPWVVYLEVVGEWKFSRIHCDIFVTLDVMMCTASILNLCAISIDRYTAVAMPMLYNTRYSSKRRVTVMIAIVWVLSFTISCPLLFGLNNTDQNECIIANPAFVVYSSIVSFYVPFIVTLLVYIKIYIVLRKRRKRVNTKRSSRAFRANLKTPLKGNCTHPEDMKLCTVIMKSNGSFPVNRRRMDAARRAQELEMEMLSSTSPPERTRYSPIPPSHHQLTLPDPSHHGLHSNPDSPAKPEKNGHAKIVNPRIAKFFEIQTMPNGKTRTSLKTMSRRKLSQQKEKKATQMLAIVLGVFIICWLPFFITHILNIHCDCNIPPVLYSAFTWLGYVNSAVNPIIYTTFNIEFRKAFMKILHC
T1 sequence (P61169 whole entry): as above
Description for dopamine autoreceptor: Affinity for the dopamine autoreceptor was established by a modification of the standard experimental test procedure of Seemen and Schaus, European Journal of Pharmacology 203, 105-109 (1991), wherein homogenized rat striatal brain tissue is incubated with ^3H-quinpirole (Quin.)and various concentrations of test compound, filtered and washed and counted in a Betaplate scintillation counter.

As to `CSC1C(=O)Nc2c(F)ccc(OCCNCc3ccsc3)c21` (stereo not drawn) [Example 1], at dopamine D-2 receptor, the Ratio is listed as 91 and the half-inhibitory concentration (IC50) was 135 nM. The compound further returned an IC50 on dopamine autoreceptor of 1.49 nM.
Regarding `O=C1Cc2c(OCCNCc3cccs3)ccc(Cl)c2N1` [Example 2a, 4-[2-Thien-2-ylmethyl)aminoethoxyl-7-chloro-1,3-dihydro-indol-2-one], on dopamine D-2 receptor, the Ratio is on record as 30.5 and the IC50 turned out to be 33.5 nM. This compound yielded a concentration for half-maximal inhibition (IC50) on dopamine autoreceptor of 1.1 nM.
Taken in the same sequence, the figures for `O=C1Cc2c(OCCNCc3ccsc3)ccc(F)c2N1` [Example 3a] were 128, 323 nM and 2.53 nM.
Take `O=C1Cc2c(OCCNCc3ccsc3)ccc(Cl)c2N1` [Example 2b, 4-[2-(Thien-3-ylmethyl)aminoethoxy]-7-chloro 1,3-dihydro-indol-2-one]: at dopamine D-2 receptor, the Ratio is 37.7 and the IC50 came to 26.7 nM. The compound also came in with a concentration for half-maximal inhibition (IC50) on dopamine autoreceptor of 0.71 nM.
For `O=C1Cc2c(OCCNCc3cccs3)ccc(F)c2N1` [Example 3b, 4-[2-(Thien-2-ylmethyl)aminoethoxy]-7-fluoro-1,3-dihydro-indol-2-one] the same measures were 293, 398 nM and 1.36 nM.
